Consider eight compounds from patent US9187458B2, “Cyanoquinoline derivatives” (Tianjin Hemay Bio-Tech Co., LTD., priority 2010, dated 2015).

A word on the IC50: it is the concentration needed to halve the response being measured. The term GI50 denotes the concentration that inhibits growth by half. Lower therefore signals greater sensitivity of the cells.

One assay deals with LoVo cells. Kind of assay: LoVo Cell Growth Inhibition Test (MTT Assay). Format: cell-based. The conditions noted are these: Homo sapiens, 72 h incubation. Here is the method: LoVo Cell Growth Inhibition Test (MTT Assay)
1. Cell strains: LoVo (human intestinal cancer cell strains);
1. A plate (10 cm) of cells in logarithmic growth phase normally cultured was collected;
2. The culture solution was sucked out. The plate was washed with 5 ml of PBS 1-2 times;
3. PBS was sucked out. 2 ml of 0.25% pancreatin was added to infiltrate the cells for 1 min;
4. The pancreatin was sucked out. The culture plate was placed in an incubator. Digestion was carried out for about 4 min at 37° C.;
5. 4 ml of complete culture solution was added in the culture plate to stop the digestion. The cells were carefully scoured with micropipette (1 ml) to give a uniform cell suspension. The suspension was implanted into a 96-well cell culture plate by 3000-4000 cells/100 μl per well. The culture plate was incubated overnight under 5% CO2 at 37° C. In day 2, 100 μl of culture solution comprising a compound was added into each well, and further incubated for 72 h under 5% CO2 at 37° C.
6. The culture solution was sucked out;
7. 100 μl of serum-free culture solution containing 0.5 mg/ml MTT was added in each well, and incubated for 4 h;
8. The culture solution was carefully sucked out;
9. 100 μl of DMSO was added in each well and vibrated to dissolve;
10. OD values were determined at 490 nM.
1. Calculation of Relative Inhibition Ratio The inhibition ratio of a compound on cell growth=(PC−n)/(PC−NC)×100%
IC50: Concentration of a compound where inhibition ratio was 50%. IC50 values were fitted with Origin7.5.

Another assay relates to Sk-Br-3 cells. Kind of assay: Sk-Br-3 Cell Growth Inhibition Test (SRB Assay). The settings on record: Homo sapiens, 91 h incubation. Format: cell-based. As for the experimental part:
Sk-Br-3 Cell Growth Inhibition Test (SRB Assay)
1. Cell strains: Sk-Br-3 (human breast cancer cell strains);
2. SRB: available from Sigmaaldrich, goods number: S9012, lot number: 047K3751. SRB was reserved at the room temperature. 0.4% (w/v) of working solution was formulated with 1% of glacial acetic acid. The solution was reserved at 4° C.; anti-tumor compounds; DMSO
Culture medium: 90% DMEM+10% FBS;
1. A plate (10 cm) of cells in logarithmic growth phase normally cultured was collected. The culture solution was sucked out. The plate was washed with 5 mL of PBS 1-2 times;
2. PBS was sucked out. […] of 0.25% pancreatin was added to infiltrate the cells for 30 s;
3. The pancreatin was sucked out. The culture plate was placed in an incubator. Digestion was carried out for about 1.5-2 min at 37° C.;
4. 4 mL of complete culture solution was added to the culture plate to stop the digestion. The cells were carefully scoured with micropipette (1 ml) to give a uniform single cell suspension;
5. Cell suspension was counted. The suspension was diluted to 1×10^5/ml. The resulting suspension was developed uniformly on a plate by 10000 cells/100 μl per well. The culture plate was incubated overnight under 5% CO2 at 37° C. In day 2, 100 μl of culture solution comprising a compound was added in each well, and further incubated for 91 h under 5% CO2 at 37° C.
6. The culture solution was sucked out. 100 uL of TCA fixed cells which were diluted to 10% were added to each well. The plate was kept in a refrigerator for 1 h at 4° C.
7. TCA stationary liquid was sucked out. Each well was washed with 150 μL of ddH2O five times;
8. After the stationary liquid was cleansed, the plate was dried in the air at the room temperature;
9. 60 μL of SRB staining solution was added in each well. The well was stained for 15 min at the room temperature;
10. The SRB staining solution was sucked out. Each well was washed with 150 μL of 1% glacial acetic acid five times;
11. After the SRB staining solution was cleansed, the plate was dried in the air at the room temperature;
12. 100 μL of 10 mM Tris was added in each well. The plate was vibrated to dissolve out SRB;
13. OD values were determined at 570 nM.
To: OD values of the starting content of cells when the cells were developed on a plate;
PC: OD values of cells after normal growth in control wells without a compound;
Ti: OD values of cells after growth in test wells with a compound;
NC: Background OD values of blank well without a compound and cells
Therefore: Ratio of cells in test wells to normal wells (% of control cell growth)=(Ti−To)/(PC−To)×100%
Ratio GI50 was concentration of a compound at the point of 50%.
Therefore: Ratio of killed cells to inoculated cells (% of killed cells)=(Ti−To)/(To−NC)×100%
LC50 was concentration point of a compound when half of the starting inoculated concentration was reached.
Concentration of a compound at this point is defined as TGI (total growth inhibition).

The subject of the next assay is BT-474 cells. Kind of assay: BT-474 Cell Growth Inhibition Test (SRB Assay). It is filed as cell-based, human. The settings on record: Homo sapiens, 70 h incubation; for inhibition at 1 µM: BT-474, 70 h, compound 1 μM, read-out: Growth Inhibition Ratio (%). The gist of the method:
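Human breast tumour BT-474 cells (1×10^5/ml seeding, overnight) exposed to compound 70 h at 37 °C, 5% CO2; TCA-fixed, SRB-stained, dye dissolved in 10 mM Tris and OD read at 570 nm. Inhibition ratio = (PC−n)/(PC−NC)×100%; IC50 is the concentration giving 50% inhibition, from fitted curves.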

Take `CN(C)C/C=C/C(=O)Nc1cc2c(Nc3ccc(OCc4ccccn4)c(Cl)c3)c(C#N)cnc2cc1OC1CCOC1` (stereo not drawn) [Example 21, (E)-N-(4-(3-CHLORO-4-(PYRIDIN-2-YL-METHOXY)PHENYLAMINO)-3-CYANO-7-(TETRAHYDROFURAN-3-YL-OXY)QUINOLIN-6-YL)-4-(DIMETHYLAMINO)-BUT-2-ENAMIDE]: the values for the IC50 with LoVo cells and with BT-474 cells were 2000 nM and 3.6 nM, respectively. The compound further came in with a GI50 in the assay with Sk-Br-3 cells of 4.1 nM.

In the assay on LoVo cells, `CN(C)C/C=C/C(=O)Nc1cc2c(Nc3ccc(OCc4ccccn4)c(Cl)c3)c(C#N)cnc2cc1O[C@H]1CCOC1` [Example 138, (S,E)-N-(4-(3-CHLORO-4-(PYRIDIN-2-YL-METHOXY)PHENYLAMINO)-3-CYANO-7-(TETRAHYDROFURAN-3-YL-OXY)QUINOLIN-6-YL)-4-(DIMETHYLAMINO)-BUT-2-ENAMIDE] displayed an IC50 of 2100 nM. In the assay with Sk-Br-3 cells, this compound showed a GI50 of 3.8 nM. In the assay on BT-474 cells, half-maximal inhibition (IC50) required 3 nM and the inhibition at 1 µM worked out at 82%.

In the assay on LoVo cells, `CN(C)C/C=C/C(=O)Nc1cc2c(Nc3ccc(OCc4ccccn4)c(Cl)c3)c(C#N)cnc2cc1O[C@@H]1CCOC1` [Example 139, (R,E)-N-(4-(3-CHLORO-4-(PYRIDIN-2-YL-METHOXY)PHENYLAMINO)-3-CYANO-7-(TETRAHYDROFURAN-3-YL-OXY)QUINOLIN-6-YL)-4-(DIMETHYLAMINO)-BUT-2-ENAMIDE] displayed an IC50 of 2200 nM. In addition, the 50% growth inhibitory concentration (GI50) in the assay with Sk-Br-3 cells turned out to be 5.2 nM. In the assay with BT-474 cells, the IC50 was determined as 3.9 nM and the inhibition at 1 µM came out at 81%.

For the compound `C#Cc1cccc(Nc2c(C#N)cnc3cc(O[C@H]4CCOC4)c(NC(=O)/C=C/CN(C)C)cc23)c1` [Example 140, (S,E)-N-(3-CYANO-4-(3-ETHYNYLPHENYLAMINO)-7-(TETRAHYDROFURAN-3-YL-OXY)QUINOLIN-6-YL)-4-(DIMETHYLAMINO)-BUT-2-ENAMIDE], the IC50 in the assay with LoVo cells turned out to be 8800 nM. The same compound returned a GI50 in the assay on Sk-Br-3 cells of 22 nM. Also, in the assay on BT-474 cells, the IC50 was 33 nM and the inhibition at 1 µM was 85%.

As for `C#Cc1cccc(Nc2c(C#N)cnc3cc(O[C@@H]4CCOC4)c(NC(=O)/C=C/CN(C)C)cc23)c1` [Example 141, (R,E)-N-(3-CYANO-4-(3-ETHYNYLPHENYLAMINO)-7-(TETRAHYDROFURAN-3-YL-OXY)QUINOLIN-6-YL)-4-(DIMETHYLAMINO)-BUT-2-ENAMIDE], half-maximal inhibition with LoVo cells (IC50) was put at 7630 nM. This compound returned a concentration for 50% growth inhibition (GI50) in the assay on Sk-Br-3 cells of 39 nM. For the same compound, in the assay with BT-474 cells, the IC50 is 96 nM and the inhibition at 1 µM was determined as 89%.

`CN(C)C/C=C/C(=O)Nc1cc2c(Nc3ccc(F)c(Cl)c3)c(C#N)cnc2cc1O[C@H]1CCOC1` [Example 142, (S,E)-N-(4-(3-CHLORO-4-FLUOROPHENYLAMINO)-3-CYANO-7-(TETRAHYDROFURAN-3-YL-OXY)QUINOLIN-6-YL)-4-(DIMETHYLAMINO)-BUT-2-ENAMIDE] registered an IC50 in the assay on LoVo cells of 8830 nM. In the assay on Sk-Br-3 cells, the GI50 came to 117 nM. Besides, in the assay on BT-474 cells, the IC50 came to 133 nM and the inhibition at 1 µM turned out to be 89%.

With `C#Cc1cccc(Nc2c(C#N)cnc3cc(O[C@H]4CCOC4)c(NC(=O)/C=C/CN(CC)CC)cc23)c1` [Example 143, (S,E)-N-(3-CYANO-4-(3-ETHYNYLPHENYLAMINO)-7-(TETRAHYDROFURAN-3-YL-OXY)QUINOLIN-6-YL)-4-(DIETHYLAMINO)-BUT-2-ENAMIDE], the IC50 was 7500 nM in the assay with LoVo cells and 149 nM with BT-474 cells. In the assay with Sk-Br-3 cells, the GI50 was found to be 231 nM. For the same compound, in the assay on BT-474 cells, the inhibition at 1 µM came to 87%.

Take `C#Cc1cccc(Nc2c(C#N)cnc3cc(O[C@H]4CCOC4)c(NC(=O)/C=C/CN4CCCCC4)cc23)c1` [Example 144, (S,E)-N-(3-CYANO-4-(3-ETHYNYLPHENYLAMINO)-7-(TETRAHYDROFURAN-3-YL-OXY)QUINOLIN-6-YL)-4-(PIPERIDIN-1-YL)-BUT-2-ENAMIDE]: the IC50 is 3300 nM with LoVo cells and 129 nM in the assay with BT-474 cells. The GI50 in the assay on Sk-Br-3 cells was 202 nM.
